# Tests used:
# [1] = system: normal human umbilical cord vein vascular endothelial cells and normal human skin fibroblasts; assay: Measurement of angiogenesis acceleration action (in vitro), hollow organ formation, Example 1; type: cell-based
# Experimental: An angiogenesis kit (manufactured by Kurabo; constituted from normal human umbilical cord vein vascular endothelial cells and normal human skin fibroblasts) was cultured for 3 hours, and then the culture medium (the medium for angiogenesis use attached to the angiogenesis kit was used as the culture medium and cultured at 37° C. under a moist environment of 5% carbon dioxide-95% air, and a carbon dioxide incubator BNA-121D was used as the incubator) was changed and an agent to be tested was added to each well (0.5 ml/well). The medium exchange was carried out also on the 3rd, 6th and 8th days after commencement of the culturing and the fresh agent to be tested was added. The kind and concentration of the agent to be tested were untreated, solvent (DMSO) 0.1%, Compound 1 10^−9, 10^−8 and 10^−7 mol/l, VEGF-A 0.1, 1 and 10 ng/ml and HGF 0.1, 1 and 10 ng/ml, and the culturing was carried out by using 3 wells for each concentration. Fixation was carried out 10 days after the commencement of culturing, and staining of hollow organ with anti-CD31 antibody was carried out by using a hollow organ staining kit (manufactured by Kurabo). As the evaluation, Chalkley Grid (a grid lens, manufactured by Kurabo) was mounted on the eyepiece of a microscope, and the hollow organ formation was evaluated by counting intersections of the randomly arrange points of Chalkley Grid with the formed hollow organ (by referring to the evaluation method of J. Pathol., 177, 275-283 (1995)). The counting was carried out at 12 positions per well, and the total was calculated.
# As the agent to be tested, Compound 1 ((E)-[5-[2-[1-phenyl-1-(3-pyridyl)methylideneaminoxy]ethyl]-7,8-dihydronaphthalen-1-yloxy]acetic acid) was dissolved in dimethyl sulfoxide (DMSO) to prepare 10^−4, 10^−5 and 10^−6 mol/l solutions which were then used by diluting 1/1000 time with the culture medium.
# As the VEGF-A (vascular endothelial growth factor-A), the 2 μg/ml solution of VEGF contained in the angiogenesis control reagent kit of Kurabo was diluted with the culture medium and used. […]
# [2] = system: mouse sponge transplantation model; assay: Angiogenesis test using mouse sponge transplantation model, Example 8; type: in vivo; conditions: for Hemoglobin content / Sponge wet weight: 15th day; for hemoglobin concentration in the granulation tissue, in words: vs polymer group
# Experimental: Under anesthesia, dorsal part of a mouse was incised and a discus urethane sponge (about 5 mm in thickness and 13 mm in diameter) was embedded therein. Administration of the agent was carried out by topically administering it directly into the sponge once a day for a total of 14 times starting on the day of the sponge transplantation model preparation, or on the operation-completed day and 7th day thereafter. On the 15th day after the sponge transplantation, the sponge containing granulation tissue was extracted and observed with the naked eye, and then its wet mass was measured. In addition, this was mixed with distilled water of 4 times larger amount than the wet mass, homogenized and centrifuged, and then the supernatant was subjected to the measurement of the hemoglobin content using Hemoglobin 13-Test Wako (manufactured by Wako Pure Chemical Industries).
# • The polylactic acid-glycolic acid copolymer used in Preparation Example 2 was suspended in 0.2 w/v % Tween 80 solution (0.05 ml). In this connection, amount of the polylactic acid-glycolic acid copolymer is identical to the amount contained in Compound 1 MS (200 μg). Compound 1 (20 μg) Group: • Compound 1 (20 μg) was suspended in 0.2 w/v % Tween 80 solution (0.05 ml). Compound 1 (40 μg) Group:
# Compound 1 (40 μg) was suspended in 0.2 w/v % Tween 80 solution (0.05 ml).
# • Compound 1 (200 μg) was suspended in 0.2 w/v % Tween 80 solution (0.05 ml). Compound 1 MS (200 μg) group: • The microsphere preparation produced in Preparation Example 2 containing […] of Compound 1 was suspended in 0.2 w/v % Tween 80 solution (0.05 ml). Compound 1 MS (400 μg) Group: • The microsphere preparation produced in Preparation Example 2 containing 400 μg of Compound 1 was suspended in 0.2 w/v % Tween 80 solution (0.05 ml). Compound 3 (20 μg) Group: • Compound 3 (20 μg) was suspended in 0.2 w/v % Tween 80 solution (0.05 ml).
# [3] = system: HGF; assay: Endogenous repair factor protein producing action (in vitro), HGF by ELISA, Example 2; type: cell-based, human; conditions: 10^-7 mol/l
# Experimental: An angiogenesis kit (manufactured by Kurabo; constituted from normal human umbilical cord vein vascular endothelial cells and normal human skin fibroblasts) was cultured for 3 hours, and then the culture medium (the medium for angiogenesis use attached to the angiogenesis kit was used as the culture medium and cultured at 37° C. under a moist environment of 5% carbon dioxide-95% air, and a carbon dioxide incubator BNA-121D was used as the incubator) was changed and an agent to be tested was added to each well (0.5 ml/well). The agent to be tested were solvent (DMSO) 0.1% and Compound 1 10^−7 mol/l, and the culturing was carried out by using 3 wells for each. Culture supernatants were collected before commencement of the culturing and 1, 2, 6, 24, 48 and 72 hours after the commencement. HGF and VEGF protein concentrations in the culture supernatants were measured by using an ELISA kit (R % D system-Funakoshi).
# As the agent to be tested, Compound 1 ((E)-[5-[2-[1-phenyl-1-(3-pyridyl)methylideneaminoxy]ethyl]-7,8-dihydronaphthalen-1-yloxy]acetic acid) was dissolved in dimethyl sulfoxide (DMSO) to prepare 10^−4 mol/l solution which was then used by diluting 1/1000 time with the culture medium.
# Results of the solvent control wells were compared with those of the wells treated with the agent to be tested by Dunnett's test (two-sided test). The significance level was set to 5%. […]
# [4] = 20 μg into the sponge once a day, 14 days of repeated administration
# [5] = 40 μg into the sponge once a day, 14 days of repeated administration
# [6] = 200 μg into the sponge, two administrations at 7 day intervals
structure (smiles),measurement,setting,value
"O=C(O)COc1cccc2c1CCC=C2CCO/N=C(\c1ccccc1)c1cccnc1 [Compound 1, (E)-[5-[2-[1-phenyl-1-(3-pyridyl)methylideneaminoxy]ethyl]-7,8-dihydronaphthalen-1-yloxy]acetic acid]","hollow organ formation (Chalkley Grid count), in words","[1]; 10^-8 and 10^-7 mol/l, 10 days of culturing, vs untreated wells, Dunnett's test, FIG. 1",accelerated hollow organ formation statistically significantly
same,"angiogenesis accelerating effect, strength compared with positive control agents",[1]; co-culture system of human vascular endothelial cells and human fibroblasts,strength equivalent to the positive control agents VEGF-A and HGF
same,Hemoglobin content,[2]; [4],2.403 ± 0.533 mg/g wet tissue
same,Sponge wet weight,[2]; [4],0.3843 ± 0.0681 g
same,"hemoglobin concentration in the granulation tissue, in words","[2]; 20 μg, 14 days of repeated administration","showed an increasing tendency, but is not a significant increase"
same,Hemoglobin content,[2]; [5],3.010 ± 0.808 mg/g wet tissue
same,Sponge wet weight,[2]; [5],0.5136 ± 0.0938 g
same,"hemoglobin concentration in the granulation tissue, in words","[2]; 40 μg, 14 days of repeated administration","showed an increasing tendency, but is not a significant increase"
same,Hemoglobin content,[2]; [6],1.964 ± 0.289 mg/g wet tissue
same,Sponge wet weight,[2]; [6],0.4123 ± 0.0320 g
same,"hemoglobin concentration in the granulation tissue, in words","[2]; 200 μg, two administrations at 7 day intervals",did not increase
same,"production of HGF protein, in words","[3]; 72 hours of culturing, vs solvent control",accelerated production of HGF protein and VEGF protein statistically significantly
same,HGF protein concentration in culture supernatant,"[3]; after 72 hours of culturing, average of 3 wells ± SD",518 ± 15 pg/mL
